Several values for one entry are separate records, joined by “and”; a condition that tells them apart may be missing. Equal entries are not always repeated.
Each compound was assayed against Cannabinoid receptor 1 (Homo sapiens, UniProt P21554) (assay: Inhibition Assay).
Chain of Cannabinoid receptor 1 (P21554 whole entry): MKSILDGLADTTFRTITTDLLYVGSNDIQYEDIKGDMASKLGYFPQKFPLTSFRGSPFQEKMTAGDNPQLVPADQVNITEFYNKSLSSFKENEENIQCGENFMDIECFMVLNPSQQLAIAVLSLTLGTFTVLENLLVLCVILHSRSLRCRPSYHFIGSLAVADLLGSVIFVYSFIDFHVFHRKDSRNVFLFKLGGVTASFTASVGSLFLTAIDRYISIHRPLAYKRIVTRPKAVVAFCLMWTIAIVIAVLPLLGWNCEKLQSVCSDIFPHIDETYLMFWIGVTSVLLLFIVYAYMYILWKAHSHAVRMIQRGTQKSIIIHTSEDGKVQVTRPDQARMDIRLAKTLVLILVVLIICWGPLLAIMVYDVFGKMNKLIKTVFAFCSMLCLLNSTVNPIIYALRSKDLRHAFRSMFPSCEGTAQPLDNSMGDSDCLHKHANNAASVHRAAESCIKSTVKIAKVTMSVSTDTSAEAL
Text: Inhibition assay using hCB1.
With `O=C(NCC1CC1)c1cnn(-c2cccc(Cl)c2)c1-c1ccc(-c2ccccc2)cc1` [hCB1 Inhibitor, 2{5,1,1}] the IC50 was 270 nM and 190 nM.
Work on `CCCCNC(=O)c1cnn(-c2cccc(C)c2)c1-c1ccc(-c2ccccc2)cc1` [hCB1 Inhibitor, 2{6,1,7}] yielded an IC50 of 2700 nM.
In the case of `Cc1ccccc1-n1ncc(C(=O)NCCCc2ccccc2)c1-c1ccc(-c2ccccc2)cc1` [hCB1 Inhibitor, 2{1,1,6}], the IC50 is reported as 200 nM.
With `O=C(NCCCc1ccccc1)c1cnn(-c2cccc(Cl)c2)c1-c1ccc(-c2ccccc2)cc1` [hCB1 Inhibitor, 2{1,1,1}] the IC50 was 410 nM and 200 nM.
For `O=C(NCCCc1ccccc1)c1cnn(-c2cccc3ccccc23)c1-c1ccc(-c2ccccc2)cc1` [hCB1 Inhibitor, 2{1,1,3}], the IC50 was 90 nM.
Compound `Cc1ccccc1-n1ncc(C(=O)NCC2CC2)c1-c1ccc(-c2ccccc2)cc1` [hCB1 Inhibitor, 2{5,1,6}] has an IC50 of 390 nM.
With `Cc1cccc(-n2ncc(C(=O)NCCCc3ccccc3)c2-c2ccc(-c3ccccc3)cc2)c1C` [hCB1 Inhibitor, 2{1,1,8}] the IC50 was 200 nM and 40 nM.
`CCCCNC(=O)c1cnn(-c2ccccc2C)c1-c1ccc(-c2ccccc2)cc1` [hCB1 Inhibitor, 2{6,1,6}] gave an IC50 of 2800 nM.
Work on `Cc1cccc(-n2ncc(C(=O)NCC3CC3)c2-c2ccc(-c3ccccc3)cc2)c1` [hCB1 Inhibitor, 2{5,1,7}] yielded an IC50 of 620 nM.
`Cc1cccc(-n2ncc(C(=O)NCCCc3ccccc3)c2-c2ccc(-c3ccccc3)cc2)c1` [hCB1 Inhibitor, 2{1,1,7}] gave an IC50 of 200 nM.
For `CCCCNC(=O)c1cnn(-c2cccc(Cl)c2)c1-c1ccc(-c2ccccc2)cc1` [hCB1 Inhibitor, 2{6,1,1}], the IC50 was 500 nM and 350 nM.

Reference: BindingDB's records for doi:10.1021/co200147y (Bristol-Myers Squibb Research and Development, 2012)
